Results published in patent publication US9717715B2, “Method of combination therapy using an anti-C-Met antibody” (Samsung Electronics Co., Ltd., priority 2013, dated 2017).

Columns and labels:
[1] = test system: breast cancer cell line HCC1954; assay: Combination cell viability CTG assay, HCC1954; format: cell-based; conditions: HCC1954, 72 hours, FIG. 18
Procedure: (§1) Cell proliferation in response to antibody treatment in vitro was assessed by a CTG (Promega) assay according to manufacturer's instructions. EBC1, HT-29, BT-474, HCC1806, HCC1954 and MKN45 cells were respectively plated at a density of 5×10^3 cells per well in FBS 10% (v/v) RPMI 1640 medium (Gibco) onto a 96-well plate (BD). The HT-29 (HTB-38), BT-474 (HTB-20), HCC1806 (CRL-2335) and HCC1954 (CRL-2338) cell lines were all purchased from ATCC. MKN45 (JCRB0254) and EBC1 (JCRB0820) cell lines were purchased from the Health Science Research Resource Bank. After 24 hours incubation, the c-Met targeting antibody huAbF46-H4-A1 (IgG2 Fc) was added alone or in combination with another drug (lapatinib, regorafenib or vemurafenib) diluted in 10% FBS (v/v) RPMI medium. Lapatinib, regorafenib and vemurafenib were purchased from Selleck Chemicals.
(§2) After 72 hours incubation, 100 μL of the CTG reagent (Promega) was added to each well followed by incubation at 37° C. for 30 minutes. The luminescence was measured using an Envision Multilabel Plate Reader (Perkin Elmer).

[2] = test system: breast cancer cell line BT-474; assay: Combination cell viability CTG assay, BT-474; format: cell-based; conditions: BT-474, 72 hours
Procedure: as §1
For the combination treatment of each experiment, IC20 concentration of one drug (drug A) and differing amounts of the other drug (drug B) were treated to see if the efficacy of drug B is improved by combi-treatment with drug A in a dose-dependent manner (see FIGS. 16-22). After 72 hours incubation, 100 μL of the CTG reagent (Promega) was added to each well followed by incubation at 37° C. for 30 minutes. The luminescence was measured using an Envision Multilabel Plate Reader (Perkin Elmer).

[3] = test system: colorectal cancer cell line HT29; assay: Combination cell viability CTG assay, HT29; format: cell-based; conditions: HT29, 72 hours, FIG. 19
Procedure: as §1, §2

[4] = test system: breast cancer cell line HCC1806; assay: Combination cell viability CTG assay, HCC1806; format: cell-based; conditions: HCC1806, 72 hours, FIG. 17
Procedure: as §1, §2

[5] = test system: MHCC97H (human liver cancer cell line); assay: MHCC97H xenograft model; format: in vivo, mouse; conditions: 30 mg/kg p.o. q.d. x 4 weeks
Procedure: The antitumor activity of huAbF46-H4-A1 (IgG2 Fc) was evaluated in a BALB/C nude mouse MHCC97H (human liver cancer cell line) xenograft model (referring to Example 16.2). Approximately 3 million MHCC97H cells in 100 μL of serum-free media were injected via s.c. to each of the 140 mice under anesthesia by 1-2% isoflurane. Ten days after subcutaneous inoculation with MHCC97H tumor cells, dosing commenced in the following treatment groups: 0 (PBS vehicle), 0.2, 1, 5 or 10 mg/kg huAbF46-H4-A1 (IgG2 Fc) i.v., q.w.×4 weeks; 30 mg/kg sorafenib p.o., q.d.×4 weeks (positive control). Each group consisted of 15 mice. Tumor volumes and body weights were measured two to three times a week for total study period about 4 weeks. The tumor volume (V) was calculated as follows: V (mm^3)={long axis length (mm)×(short axis length (mm))^2}/2.

[6] = test system: human gastric cancer MKN45 cells; assay: MKN45 orthotopic xenograft (metastasis); format: in vivo, mouse; conditions: 5-FU group, dose not given
From the text: For the MKN45 orthotopic xenograft experiment, human gastric cancer MKN45 cells (Japanese Cancer Research Bank, JCRB, Tokyo, Japan) were inoculated into donor BALB/C nude mice. When the tumor size reached the size of 600-800 mm3, the donor mice were euthanized, and the tumor was excised through sterile surgical procedure. The tumors were cut into fragments the size of 1×1×1 mm and implanted into the wall of great gastric curvature of recipient mice through sterile surgery under isoflurane anesthesia. 7 days after the surgery, recipient mice with orthotopic tumors were randomized into groups according to body weight and dosing was commenced. huAbF46-H4-A1 (IgG2 Fc) was injected into a vein once a week for 9 weeks. At the end of the in vivo study, orthotopic tumor weight was recorded and metastasis to the other organ was checked by macroscopic examination.

CS(=O)(=O)CCNCc1ccc(-c2ccc3ncnc(Nc4ccc(OCc5cccc(F)c5)c(Cl)c4)c3c2)o1 [lapatinib]
anti-tumor efficacy (cell viability) when co-treated with huAbF46-H4-A1 (IgG2 Fc) [1]: significantly improved
anti-tumor efficacy (cell viability) when co-treated with huAbF46-H4-A1 (IgG2 Fc) ([2]; FIG. 16): significantly improved
anti-tumor efficacy (cell viability) when co-treated with huAbF46-H4-A1 (IgG2 Fc) [3]: significantly improved
anti-tumor efficacy (cell viability) when co-treated with huAbF46-H4-A1 (IgG2 Fc) [4]: significantly improved

CNC(=O)c1cc(Oc2ccc(NC(=O)Nc3ccc(Cl)c(C(F)(F)F)c3)cc2)ccn1 [sorafenib, reference compound]
tumor growth [5]: significant inhibition of MHCC97H tumor growth

CNC(=O)c1cc(Oc2ccc(NC(=O)Nc3ccc(Cl)c(C(F)(F)F)c3)c(F)c2)ccn1 [regorafenib]
anti-tumor efficacy (cell viability) when co-treated with huAbF46-H4-A1 (IgG2 Fc) ([2]; FIG. 20): significantly improved

O=c1[nH]cc(F)c(=O)[nH]1 [Antibody 5-FU, 5-FU, reference compound]
Number of metastasis lesion [6]: 0
